The test system of series [1] is DNA. Briefly: Binding affinity to Escherichia coli GlnAp2 labelled with FITC assessed as dissociation constant incubated for 10 mins by fluorescence polarization assay. Type of series: nucleic-acid assay.
Series [2] concerns DNA. In words: Inhibition of RpoN-mediated GlnAp2 transcription in Escherichia coli XL-1 Blue expressing GFP assessed as decrease in GFP levels at 10 uM incubated for 4 hrs under minimal nitrogen media by fluorescence based assay relative to control. In kind it is nucleic-acid assay.
For the next series, the target named is dsDNA. Briefly: Binding affinity to FITC-labelled dsDNA (unknown origin) assessed as dissociation constant incubated for 10 mins by fluorescence polarization assay. In kind it is nucleic-acid assay.
Series [3] in a line: Hemolytic activity in human RBC at 100 uM measured after 1 hrs relative to control. Type of series: toxicity, cell-based, Erythrocyte. The settings on record: red blood cells (erythrocytes), read-out: Activity.
Series [4] is described as follows: Toxicity in Galleria mellonella larvae assessed as survivability at 10 mg/kg administered intra-hemocoelicly and measured after 24 hrs. The conditions noted are these: in vivo, other. Type of series: organism-based.
A further series deals with Pseudomonas aeruginosa. Briefly: Antibacterial activity against Pseudomonas aeruginosa assessed as inhibition of cell growth upto 32 ug/ml incubated overnight by microtiter broth dilution assay. The settings on record: dose <= 32 µg/ml. In kind it is functional. In general terms: In broth dilution the organism is exposed to a series of concentrations in liquid medium.

Bridge positions count the residues as written; N and C are the ends. Square brackets hold non-standard residues; d marks the D form. Peptide text beside a SMILES is read from it. S5 = C=CCCC[C@](C)(N)C(=O)O; Nle = CCCC[C@H](N)C(=O)O; βAla = NCCC(=O)O

For orientation: Kd means a measure of binding affinity in units of concentration. Broadly, the inhibition is the change of the read-out against control, counted positive when it falls. What is called MIC is the least concentration at which growth counts as inhibited.

For `CCCC[C@H](NC(=O)[C@H](CCC(=O)O)NC(=O)[C@H](CCCNC(=N)N)NC(=O)[C@H](Cc1ccc(O)cc1)NC(=O)[C@H](CCCCN)NC(=O)[C@H](C)NC(=O)[C@]1(C)CCC/C=C\CCC[C@](C)(NC(=O)[C@@H](NC(=O)[C@H](CCCCN)NC(=O)[C@H](Cc2ccccc2)NC(=O)CCNC(C)=O)C(C)C)C(=O)N[C@@H](CCCNC(=N)N)C(=O)N[C@@H](CCCNC(=N)N)C(=O)N[C@@H]([C@@H](C)O)C(=O)N1)C(=O)N[C@@H](CC(C)C)C(N)=O` (Ac-[βAla]FKV[S5]RRT[S5]AKYRE[Nle]L-NH2; staple (Z) 5-9), the results for the Kd in the series with DNA [1] and at dsDNA were 1.14 µM and 0.834 µM, respectively. Also, the inhibition in the series on DNA [2] stood at 75%. In addition, the hemolysis at 1 h, 100 µM in series [3] was found to be 6.6%. Further, in series [4], the Activity entry is given as “Non-Toxic”. Also, the MIC in the series on Pseudomonas aeruginosa is more than 32 µg/mL.

The values are drawn from ChEMBL document CHEMBL5107971, “RpoN-Based stapled peptides with improved DNA binding suppress Pseudomonas aeruginosa virulence” (RSC Med Chem, 2022).
